Where a SMILES comes first, the peptide text is derived from it. [ ]: non-standard residue; d: D form. The star is where a group is joined. Stearoyl = CCCCCCCCCCCCCCCCCC(=O)*
Experiment: Enzymatic hydrolysis stability
Assay type: in vitro ADME
Settings: Tritirachium album (Parengyodontium album), peptide 8.0 mg/mL and proteinase K 2.0 mg/mL in PBS mixed 0.5 mL + 0.5 mL, 37 °C, HPLC peak area, mean n = 3
Protocol: Peptides and proteinase K were dissolved in PBS and then diluted to 8.0 mg mL^−1 and 2.0 mg mL^−1, respectively. For each peptide tested, 0.5 mL of peptide solution was mixed with 0.5 mL proteinase K solution and then incubated in a water bath at 37 °C. After 0, 5, 15, 30, 60, and 120 min, a 10 µL sample of the mixture was withdrawn and 30 µL of a precipitator solution (1.0 mL of TFA in 9.0 mL acetonitrile) was added. Each sample was subsequently vortexed for 5 s and centrifuged for 10 min at 4 °C. Supernatants were analyzed by HPLC, with the peak area of each peptide recorded and used to calculate hydrolysis efficiency.

| SMILES | metabolised at 1 h, 4 mg/mL (within 60 min, read-out: peptide degraded by proteinase K) [%] | remaining at 1 h, 4 mg/mL (60 min, read-out: peptide remaining after incubation with proteinase K) [%] |
| --- | --- | --- |
| CCCCCCCCCCCCCCCCCC(=O)N[C@@H](CS)C(=O)N[C@@H](CC(C)C)C(=O)N[C@@H](CC(C)C)C(=O)N[C@@H](CCCCN)C(=O)N[C@@H](CCCCN)C(=O)N[C@@H](CC(C)C)C(=O)N[C@@H](CC(C)C)C(=O)N[C@@H](CCCCN)C(=O)N[C@@H](CCCCN)C(=O)N[C@@H](CC(C)C)C(=O)N[C@@H](CC(C)C)C(=O)N[C@@H](CCCCN)C(=O)N[C@@H](CCCCN)C(=O)N[C@@H](CS)C(=O)N[C@@H](Cc1c[nH]cn1)C(=O)N[C@@H](Cc1c[nH]cn1)C(=O)N[C@@H](Cc1c[nH]cn1)C(=O)N[C@@H](Cc1c[nH]cn1)C(=O)N[C@@H](Cc1c[nH]cn1)C(=O)N[C@@H](Cc1c[nH]cn1)C(=O)N[C@@H](CCCNC(=N)N)C(=O)N[C@@H](CCCNC(=N)N)C(=O)N[C@@H](CCCNC(=N)N)C(=O)N[C@@H](CCCNC(=N)N)C(=O)N[C@@H](CCCNC(=N)N)C(=O)N[C@@H](CCCNC(=N)N)C(=O)N[C@@H](CCCNC(=N)N)C(=O)N[C@@H](CCCNC(=N)N)C(=O)N[C@@H](CCCNC(=N)N)C(N)=O [P-03] (Stearoyl-CLLKKLLKKLLKKCHHHHHHRRRRRRRRR-NH2) | 82 | – |
| CCCCCCCCCCCCCCCCCC(=O)N[C@H](CS)C(=O)N[C@H](CC(C)C)C(=O)N[C@H](CC(C)C)C(=O)N[C@H](CCCCN)C(=O)N[C@H](CCCCN)C(=O)N[C@H](CC(C)C)C(=O)N[C@H](CC(C)C)C(=O)N[C@H](CCCCN)C(=O)N[C@H](CCCCN)C(=O)N[C@H](CC(C)C)C(=O)N[C@H](CC(C)C)C(=O)N[C@H](CCCCN)C(=O)N[C@H](CCCCN)C(=O)N[C@H](CS)C(=O)N[C@H](Cc1c[nH]cn1)C(=O)N[C@H](Cc1c[nH]cn1)C(=O)N[C@H](Cc1c[nH]cn1)C(=O)N[C@H](Cc1c[nH]cn1)C(=O)N[C@H](Cc1c[nH]cn1)C(=O)N[C@H](Cc1c[nH]cn1)C(=O)N[C@H](CCCNC(=N)N)C(=O)N[C@H](CCCNC(=N)N)C(=O)N[C@H](CCCNC(=N)N)C(=O)N[C@H](CCCNC(=N)N)C(=O)N[C@H](CCCNC(=N)N)C(=O)N[C@H](CCCNC(=N)N)C(=O)N[C@H](CCCNC(=N)N)C(=O)N[C@H](CCCNC(=N)N)C(=O)N[C@H](CCCNC(=N)N)C(N)=O [P-04] (Stearoyl-[dC][dL][dL][dK][dK][dL][dL][dK][dK][dL][dL][dK][dK][dC][dH][dH][dH][dH][dH][dH][dR][dR][dR][dR][dR][dR][dR][dR][dR]-NH2) | – | 70 |
